Laboratory results as given in US11083196B2, “Microbiocidal oxadiazole derivatives” (SYNGENTA PARTICIPATIONS AG, priority 2016, dated 2021).
Where “and” joins values, the source holds several entries; their conditions need not be identical. Equal values may be shown once.

What was measured:
[1] = tested on: Phakopsora pachyrhizi; assay: Fungicidal activity against Phakopsora pachyrhizi / soybean / leaf disc preventative (Asian soybean rust); type: in vivo; settings: foliar, 288 h, soybean leaf disks, inoculated one day after application, assessed 12-14 days after application, compared to untreated control
Experimental: Leaf disks or leaf segments of various plant species are cut from plants grown in a greenhouse. The cut leaf disks or segments are placed in multiwell plates (24-well format) onto water agar. The leaf disks are sprayed with a test solution before (preventative) or after (curative) inoculation. Compounds to be tested are prepared as DMSO solutions (max. 10 mg/ml) which are diluted to the appropriate concentration with 0.025% Tween20 just before spraying. The inoculated leaf disks or segments are incubated under defined conditions (temperature, relative humidity, light, etc.) according to the respective test system. A single evaluation of disease level is carried out 3 to 14 days after inoculation, depending on the pathosystem. Percent disease control relative to the untreated check leaf disks or segments is then calculated. Soybean leaf disks are placed on water agar in multiwell plates (24-well format) and sprayed with the formulated test compound diluted in water. One day after application leaf discs are inoculated by spraying a spore suspension on the lower leaf surface. After an incubation period in a climate cabinet of 24-36 hours in darkness at 20° C. and 75% rh leaf disc are kept at 20° C. with 12 h light/day and 75% rh. The activity of a compound is assessed as percent disease control compared to untreated when an appropriate level of disease damage appears in untreated check leaf disks (12-14 days after application).

[2] = tested on: Puccinia recondita f. sp. tritici; assay: Fungicidal activity against Puccinia recondita f. sp. tritici / wheat / leaf disc curative (brown rust); type: in vivo; settings: foliar, 144 h, wheat leaf segments cv. Kanzler, applied 1 day after inoculation, assessed 6-8 days after application, compared to untreated control
Experimental: Leaf disks or leaf segments of various plant species are cut from plants grown in a greenhouse. The cut leaf disks or segments are placed in multiwell plates (24-well format) onto water agar. The leaf disks are sprayed with a test solution before (preventative) or after (curative) inoculation. Compounds to be tested are prepared as DMSO solutions (max. 10 mg/ml) which are diluted to the appropriate concentration with 0.025% Tween20 just before spraying. The inoculated leaf disks or segments are incubated under defined conditions (temperature, relative humidity, light, etc.) according to the respective test system. A single evaluation of disease level is carried out 3 to 14 days after inoculation, depending on the pathosystem. Percent disease control relative to the untreated check leaf disks or segments is then calculated. Wheat leaf segments cv. Kanzler are placed on agar in multiwell plates (24-well format). The leaf segments are inoculated with a spore suspension of the fungus. Plates are stored in darkness at 19° C. and 75% rh. The formulated test compound diluted in water is applied 1 day after inoculation. The leaf segments are incubated at 19° C. and 75% rh under a light regime of 12 h light/12 h darkness in a climate cabinet and the activity of a compound is assessed as percent disease control compared to untreated when an appropriate level of disease damage appears in untreated check leaf segments (6-8 days after application).

[3] = tested on: Puccinia recondita f. sp. tritici; assay: Fungicidal activity against Puccinia recondita f. sp. tritici / wheat / leaf disc preventative (brown rust); type: in vivo; settings: foliar, 168 h, wheat leaf segments cv. Kanzler, inoculated 1 day after application, assessed 7-9 days after application, compared to untreated control
Method in brief: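 Wheat leaf segments (cv. Kanzler) on water agar sprayed with compound diluted from DMSO stock in water/0.025% Tween20, then inoculated with P. recondita spores 1 day later. Incubated at 19 °C, 75% rh, 12 h light/dark. Percent disease control versus untreated assessed 7-9 days after application.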

[4] = tested on: Glomerella lagenarium (Colletotrichum lagenarium); assay: Fungicidal activity against Glomerella lagenarium (Colletotrichum lagenarium), liquid culture / cucumber / preventative (anthracnose); type: cell-based; settings: Colletotrichum orbiculare, liquid culture (PDB), growth inhibition measured photometrically 3-4 days after application, compared to untreated control
Method in brief: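 Glomerella lagenarium conidia in potato dextrose broth were exposed in 96-well plates to test compound diluted from DMSO stock with 0.025% Tween20 and incubated at 24 °C. Growth inhibition was read photometrically 3–4 days after application, as percent activity relative to untreated check.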

Row | SMILES | pest or weed control at 200 ppm [1] [%] | pest or weed control at 200 ppm [2] [%] | pest or weed control at 200 ppm [3] [%] | melting point | inhibition of growth at 20 ppm [4] [%]
1 | COCC1=NOC(c2ccc(-c3noc(C(F)(F)F)n3)cc2)C1 (stereo not shown) [Compound A-9, 3-[4-[3-(methoxymethyl)-4,5-dihydroisoxazol-5-yl]phenyl]-5-(trifluoromethyl)-1,2,4-oxadiazole] | ≥ 80 | ≥ 80 | ≥ 80 | 59 to 63 °C | ≥ 80
2 | FC(F)(F)c1nc(-c2ccc(-c3ccnc(Cl)c3)cc2)no1 [Compound D-26, 3-[4-(2-chloro-4-pyridyl)phenyl]-5-(trifluoromethyl)-1,2,4-oxadiazole] | ≥ 80 | ≥ 80 | ≥ 80 | 110 to 115 °C | ≥ 80
3 | CC(C)(C)[S+]([O-])NC1CSC(c2ccc(-c3noc(C(F)(F)F)n3)cc2)=N1 (stereo not shown) [Compound A-29, 2-methyl-N-[2-[4-[5-(trifluoromethyl)-1,2,4-oxadiazol-3-yl]phenyl]-4,5-dihydrothiazol-4-yl]propane-2-sulfinamide] | ≥ 80 | ≥ 80 | ≥ 80 | – | ≥ 80
4 | CCCC1=NOC(c2ccc(-c3noc(C(F)(F)F)n3)cc2)C1 (stereo not shown) [Compound A-6, 3-[4-(3-propyl-4,5-dihydroisoxazol-5-yl)phenyl]-5-(trifluoromethyl)-1,2,4-oxadiazole] | ≥ 80 | ≥ 80 | ≥ 80 | 79 to 83 °C | ≥ 80
5 | CC(=O)OCc1cnc(-c2ccc(-c3noc(C(F)(F)F)n3)cc2)o1 [Compound C-1, [2-[4-[5-(trifluoromethyl)-1,2,4-oxadiazol-3-yl]phenyl]oxazol-5-yl]methyl acetate] | ≥ 80 | ≥ 80 | ≥ 80 | 69 to 71 °C | –
6 | CC1COC(c2ccc(-c3noc(C(F)(F)F)n3)cc2)=N1 (stereo not shown) [Compound A-1, 3-[4-(4-methyl-4,5-dihydrooxazol-2-yl)phenyl]-5-(trifluoromethyl)-1,2,4-oxadiazole] | ≥ 80 | ≥ 80 | ≥ 80 | 77 to 80 °C | ≥ 80
7 | FC(F)(F)c1nc(-c2ccc(C3=NCCO3)cc2)no1 [Compound A-3, 3-[4-(4,5-dihydrooxazol-2-yl)phenyl]-5-(trifluoromethyl)-1,2,4-oxadiazole] | ≥ 80 | ≥ 80 | ≥ 80 | 120 to 125 °C | –
8 | CC1(C)CN=C(c2ccc(-c3noc(C(F)(F)F)n3)cc2)O1 [Compound A-21, 3-[4-(5,5-dimethyl-4H-oxazol-2-yl)phenyl]-5-(trifluoromethyl)-1,2,4-oxadiazole] | ≥ 80 | ≥ 80 | ≥ 80 | 178 to 180 °C | ≥ 80
9 | Cc1cnc(-c2ccc(-c3noc(C(F)(F)F)n3)cc2)o1 [Compound C-2, 3-[4-(5-methyloxazol-2-yl)phenyl]-5-(trifluoromethyl)-1,2,4-oxadiazole] | ≥ 80 | ≥ 80 | ≥ 80 | 110 to 111 °C and 109 to 111 °C | –
10 | CCC1=NOC(c2ccc(-c3noc(C(F)(F)F)n3)cc2)C1 (stereo not shown) [Compound A-5, 3-[4-(3-ethyl-4,5-dihydroisoxazol-5-yl)phenyl]-5-(trifluoromethyl)-1,2,4-oxadiazole] | ≥ 80 | ≥ 80 | ≥ 80 | 75 to 80 °C | ≥ 80
11 | COCC(=O)NC1CSC(c2ccc(-c3noc(C(F)(F)F)n3)cc2)=N1 (stereo not shown) [Compound A-28, 2-methoxy-N-(2-[4-[5-(trifluoromethyl)-1,2,4-oxadiazol-3-yl]phenyl]-4,5-dihydrothiazol-4-yl]acetamide] | ≥ 80 | ≥ 80 | ≥ 80 | – | ≥ 80
12 | CC1=NOC(c2ccc(-c3noc(C(F)(F)F)n3)cc2)C1 (stereo not shown) [Compound A-4, 3-[4-(3-methyl-4,5-dihydroisoxazol-5-yl)phenyl]-5-(trifluoromethyl)-1,2,4-oxadiazole] | ≥ 80 | ≥ 80 | ≥ 80 | 89 to 92 °C | ≥ 80
